Earlier results as cited in patent publication US20090093865A1, “METHOD AND SYSTEM FOR CONTROLLING THE SPREAD OF MICROORGANISMS AMONG SUBJECTS IN A GROUP” (priority 2006, published 2009).

Test system: methicillin-resistant Staphylococcus aureus
Conditions: randomized controlled trial of mupirocin versus placebo (Harbarth et al. 1999)

For `C/C(=C\C(=O)OCCCCCCCCC(=O)O)C[C@@H]1OC[C@H](C[C@@H]2O[C@H]2[C@@H](C)[C@H](C)O)[C@@H](O)[C@H]1O` [mupirocin], which “carriers in whom methicillin-resistant S. aureus was successfully eradicated” value is on record?
The value was 44%.
